Columns and labels:
[1] = tested on: wildtype and LMNA^G609G/G609G MEFs; assay: Cell proliferation rate (population doubling level, PDL) of MEFs; format: cell-based, mouse
Source text: In the step of isolating mouse embryo fibroblasts (MEFs), heterozygous (LMNA^G609G/+) mice were set for mating. The date of pregnancy of mice was identified by checking for vaginal plug in the morning following the day of mating. If the vaginal plug was found, the mouse was considered to be pregnant for 0.5 days (E0.5). When the embryos reached E12.5 to E13.5, the pregnant mice were sacrificed, and the embryos were isolated from the mice inside tissue culture hood using sterile utensils. The embryos were placed in phosphate buffered saline (PBS). Their head and liver were removed. A portion of the head was used for genotyping to identify the genotype of each embryo. The body of each embryo was transferred to 1mL of 0.1% Trypsin-EDTA solution in a well of 12-well plate. Using sterile scissors, embryos were cut into small pieces. The 12-well plate was then placed in a 37° C. incubator for 10 minutes. Followed by vigorous pipetting of the embryos in Trypsin-EDTA solution until the embryos wholly dissolved into the solution. The 12-well plate was then placed in 37° C. incubator for 5 minutes. The homogenized solution was then transferred to 9 mL of Gibco's High Glucose Dulbecco's Modified Eagle's Medium (DMEM) supplemented with sodium bicarbonate (3.7 g/L), HEPES (6 g/L), 10% fetal bovine serum (FBS) and penicillin-streptomycin (100 units/mL). The isolated MEFs were considered to be at passage 0 (P0). P3 MEFs were used in experiments as they have optimal cellular responses to stimuli. […]
In the step of determining the cell's proliferation rate and optimal concentration, primary mouse embryonic fibroblasts (MEFs) at passage 3 were counted by using LUNA-II Automated Cell Counter. […] After 4-day and 8-day treatment, the cells were counted again using LUNA-II Automated Cell Counter. The population doubling level (PDL) which reflects the proliferation rate of cells was calculated by the formula: n=3.32×(logUCY−logI)+X, where n=the PDL number, UCY=the cell yield at that time point, I=the initial cell number, and X=the doubling level of the cells used to initiate the subculture being quantitated.

[2] = tested on: premature aging LMNA^G609G/G609G mice; assay: Healthspan analysis of LMNA^G609G/G609G mice; format: in vivo, mouse
Experimental: In the step of analyzing the healthspan of LMNA^G609G/G609G mice, for chemical treatment in mice, 2 months old LMNA^G609G/G609G mice were used. They received an intraperitoneal injection (IP) twice a week until they reached the humane point. Different dosages were used for the injection, 50 mg/kg of CBD was identified as the optimal dosage with the greatest extend in healthspan of the treated mice. CBD was dissolved in 5% DMSO and 5% polyethylene glycol (PEG) in sterile saline and stored at −80° C. for up to 1 month.

[3] = tested on: skin of LMNA^G609G/G609G mice; assay: Histology study of mouse skin (hematoxylin and eosin staining); format: in vivo; conditions: CBD treated LMNA^G609G/G609G mice
Experimental: (§1) In the step of study the histology of mouse skin and liver, the mice were sacrificed by cervical dislocation under anesthesia by intraperitoneal (IP) injection of 100 mg/kg ketamine and 16 mg/kg xylazine in sterile water. Major organs, including skin, muscle, intestine, kidney, spleen, liver, lung, heart, aorta, were collected. Half of the tissues were snap-frozen in liquid nitrogen and stored at −80° C. for extraction of proteins and RNA. Another half of the tissues were fixed in 4% paraformaldehyde (PFA) in PBS and shook at 4° C. overnight. For paraffin wax sections, the fixed tissues were incubated in 70% ethanol and shook at 4° C. overnight. Followed by stepwise dehydration of tissues in 90%, 95%, 100%, and 100% ethanol for 1 hour each. Then the tissues were incubated in 50% xylene and 50% ethanol for 30 to 40 minutes and transferred to 100% xylene for 10 to 15 minutes. The tissues were then incubated in wax for 30 minutes and transferred to new wax for 3 times. Then the tissues were placed in the wax inside a vacuum chamber overnight. On the following day, the tissues were embedded into paraffin blocks and sectioned into slides with 6 μm in thickness. After the tissue sections were dried, they were incubated in xylene solution twice each for 5 minutes. […]

[4] = tested on: liver of LMNA^G609G/G609G mice; assay: Senescence-associated beta-galactosidase staining of mouse liver; format: in vivo; conditions: CBD treated LMNA^G609G/G609G mice
Experimental: as §1

[5] = tested on: Human mesenchymal stem cells (MSCs); assay: Senolytic effect in MSCs upon irradiation induced senescence (relative cell viability); format: cell-based; conditions: 24-hour treatment, normalized to non-irradiated control
Experimental: Human mesenchymal stem cells (MSCs) were counted by using LUNA-II Automated Cell Counter. 1.0×10^5 cells were seeded to each well of 6-well plate and cultured for 24 hours. The cells were divided into two groups: non-irradiated and irradiated group. The irradiated group received gamma irradiation by irradiator. 10 Gy was the dosage of irradiation used. 24 hours after the irradiation, the non-irradiated and irradiated group were treated with different concentration of chemical. After 24-hour treatment, the cells were counted again using LUNA-II Automated Cell Counter. The population doubling level (PDL) which reflects the proliferation rate of cells was calculated by the formula: n=3.32×(logUCY−logI)+X, where n=the PDL number, UCY=the cell yield at that time point, I=the initial cell number, and X=the doubling level of the cells used to initiate the subculture being quantitated.
The relative cell viability was calculated by normalizing each sample to non-irradiated control sample. […] As CBD selectively killed senescent MSCs while keeping proliferating MSCs unharmed, it was discovered to be a novel senolytic. Referring to FIG. 12b, Western blotting was carried to investigate the mechanism behind CBD's senolytic effect. […] While as proliferating and senescent MSCs responded differently in phosphorylated akt level.

[6] = 50 mg/kg CBD IP twice a week from 2 months old

In the case of C=C(C)[C@@H]1CCC(C)=C[C@H]1c1c(O)cc(CCCCC)cc1O [CBD, Cannabidiol], the “effect on PDL” value ([1]; 10 μM CBD, 4 and 8 days of treatment) is reported as “increased the PDL to the greatest extent”, the “effect on PDL (toxicity effect)” value ([1]; 50 μM CBD, 4 days) is reported as “decrease in PDL” and the “optimal concentration (PDL)” value ([1]; MEFs, 4 and 8 days of treatment) is reported as 10 µM. The “increase in maximum healthspan” value [2, 6] was 19.8%, the “increase in median healthspan” value [2, 6] was 8% and the “increase of healthspan (FIG. 6b legend)” value ([2]; 50 mg/kg CBD twice a week from 2 months old) was 11.2%. For the same compound, the “optimal dosage (greatest extend in healthspan)” value ([2]; IP twice a week, from 2 months old) was 50 mg/kg, the “decrease of hair follicle density” value [3] was “rescued” and the “loss of skin adipose layer” value [3] was “rescued”. For the same compound, the “increase of senescent cells in liver” value [4] was “rescued”, the “relative cell viability, irradiated senescent MSCs” value ([5]; 10 Gy gamma irradiation) was “significantly decrease the cell viability” and the “relative cell viability, non-irradiated control MSCs” value [5] was “significantly increase the cell viability”.

Source: patent US20220354805A1, “Cannabidiol (CBD) as Chemical for Treating Aging-related Degenerative Diseases and Promoting Health Aging” (Hemix Biotech Limited, priority 2021, published 2022)
